This note sets out measurements from patent publication US9512111B2, “N-sulfonylated tetrahydroquinolines and related bicyclic compounds for inhibition of RORγ activity and the treatment of disease” (Lycera Corporation, priority 2010, dated 2016).

For this assay, the target named is T1, RORγ-LBD (Homo sapiens, UniProt P51449).
T1 construct: HIS-tagged RORγ-LBD was recombinantly expressed in SF9 cells; made in house; host or cells: SF9 cells (baculovirus); unpurified lysate
T1 sequence (P51449 269-508 limits assumed): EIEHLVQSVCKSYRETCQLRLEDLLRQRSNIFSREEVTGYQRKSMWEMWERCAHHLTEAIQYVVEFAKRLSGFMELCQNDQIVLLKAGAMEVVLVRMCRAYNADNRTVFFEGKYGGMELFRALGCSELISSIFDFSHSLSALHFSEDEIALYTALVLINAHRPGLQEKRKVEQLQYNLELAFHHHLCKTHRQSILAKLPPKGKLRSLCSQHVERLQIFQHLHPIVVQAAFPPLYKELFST
Nature of the assay: RORγ-Ligand Binding Domain TR-FRET Assay. The format is biochemical. The procedure: HIS-tagged RORγ-LBD was recombinantly expressed in SF9 cells using a baculovirus expression system. The protein was not purified. Cells were lysed and the lysate was used as a source for RORγ-LBD for the assay. A 1:80 dilution of RORγ-LBD lysate in assay buffer (25 mM HEPES pH 7.0, 100 mM NaCl, 0.01% Tween, 0.1% BSA) was prepared and 5 μL was added to each well (RORγ-LBD final concentration ˜10 nM). Control wells received lysate from SF9 cells not expressing RORγ-LBD.
Compounds to be tested were diluted to 100× final test concentration in DMSO and further diluted to 4× final test concentration using assay buffer to provide the test compound mixture. An aliquot (5 μL) of the test compound mixture was added to each well.
A 4× stock of biotinylated-LXXLL peptide from SRC1-2 (Biotin-[…]) was prepared in assay buffer and a 5 μL aliquot added to each well (450 nM final concentration). A 4× solution of europium tagged anti-HIS antibody (2 nM final concentration) and APC conjugated streptavidin (60 nM final concentration) were prepared and a 5 μL aliquot added to each well.
The final assay mixture was incubated for 4 hours to overnight, and the fluorescence signal was measured on an Envision plate reader: (Excitation filter=340 nm; APC emission=665 nm; Europium emission=615 nm; dichroic mirror=D400/D630; delay time=100 μs, integration time=200 μs).
IC50 values for test compounds were calculated from the quotient of the fluorescence signal at 665 nm divided by the fluorescence signal at 615 nm using GraphPad Prism software.

SMILES strings stand for the structures.

By IC50 is commonly meant the midpoint of a concentration-inhibition curve. The compound `COC(=O)c1sccc1S(=O)(=O)n1ncc2ccc(NC(=O)c3c(F)cccc3Cl)cc21` [Compound V-144] yielded an IC50 (Table 8, indazoles) of under 15 µM.

Take `C[C@H]1CN(S(=O)(=O)c2ccc(F)cc2)c2cc(NC(=O)C3(c4ccc(Cl)cc4)CCCC3)ccc2O1` [VI-132]: the IC50 (benzoxazines, Table 9) was under 15 µM.

Compound `O=C(Nc1ccc2cnn(S(=O)(=O)Cc3cccc(Cl)c3)c2c1)c1c(F)cccc1Cl` [Compound V-86] showed an IC50 (Table 8, indazoles) of under 15 µM.

In turn, `Cc1ccc(F)c(S(=O)(=O)n2ncc3ccc(NC(=O)c4c(F)cccc4Cl)cc32)c1` [Compound V-101] registered an IC50 (Table 8, indazoles) of under 15 µM.

As for `COc1ccc(Br)cc1S(=O)(=O)n1ncc2ccc(NC(=O)c3c(F)cccc3Cl)cc21` [Compound V-83], where the note is “Table 8, indazoles”, the IC50 is under 15 µM.

`O=C(Nc1ccc2cnn(S(=O)(=O)c3ccc(I)cc3)c2c1)c1c(F)cccc1Cl` [Compound V-131] registered a half-maximal inhibitory concentration (IC50) (Table 8, indazoles) of under 15 µM.

As for `CN(C)C(=O)Nc1ccc(S(=O)(=O)n2ncc3ccc(NC(=O)c4c(F)cccc4Cl)cc32)cc1` [Compound V-134], the IC50 (Table 8, indazoles) was under 15 µM.

`Cc1nn(C)c(C)c1S(=O)(=O)n1ncc2ccc(NC(=O)c3c(F)cccc3Cl)cc21` [Compound V-90] displayed an IC50 (Table 8, indazoles) of under 15 µM.

On to `O=C(Nc1ccc2cnn(S(=O)(=O)c3ccc(F)c(C(F)(F)F)c3)c2c1)c1c(Cl)cccc1Cl` [Compound V-66], for which the IC50 (Table 8, indazoles) was under 15 µM.

Where the note is “Table 8, indazoles”, `Cc1nc(C)c(S(=O)(=O)n2ncc3ccc(NC(=O)c4c(F)cccc4Cl)cc32)s1` [Compound V-89] returned an IC50 of under 15 µM.

For the compound `O=C(Nc1ccc2c(c1)N(S(=O)(=O)c1ccc(Cl)cc1)C[C@@H](CO)O2)c1c(F)cccc1F` [VI-55], the IC50 (benzoxazines, Table 9) was under 15 µM.

In turn, `O=C(Nc1ccc2cnn(S(=O)(=O)c3cccc(Cl)c3)c2c1)c1c(F)cccc1C(F)(F)F` [Compound V-48] had an IC50 (Table 8, indazoles) of under 15 µM.

As for `O=C(Nc1ccc2cnn(S(=O)(=O)c3cccnc3)c2c1)c1c(F)cccc1Cl` [Compound V-94], for the setting “Table 8, indazoles”, the 50% inhibitory concentration (IC50) was under 15 µM.

Take `COC(=O)c1ccc(S(=O)(=O)n2ncc3ccc(NC(=O)c4c(F)cccc4Cl)cc32)cc1` [Compound V-109]: the IC50 (Table 8, indazoles) was under 15 µM.

With `CC(C)(C)c1cccc(S(=O)(=O)n2ncc3ccc(NC(=O)Cc4ccc(Cl)cc4)cc32)c1` [Compound V-28], the half-maximal inhibitory concentration (IC50) (Table 8, indazoles) is under 15 µM.

Where the note is “Table 8, indazoles”, `O=C(Nc1ccc2c(CO)nn(S(=O)(=O)c3cccc(C(F)(F)F)c3)c2c1)c1c(F)cccc1Cl` [Compound 11, 2-Chloro-6-fluoro-N-[3-hydroxymethyl-1-(3-trifluoromethylbenzene-sulfonyl)-1H-indazol-6-yl]benzamide] showed an IC50 of under 15 µM.

Turning to `Cc1ncc(CC(=O)Nc2ccc3cnn(S(=O)(=O)c4cccc(OC(F)F)c4)c3c2)s1` [Compound V-3], the IC50 (Table 8, indazoles) was under 15 µM.

Turning to `O=C(Nc1ccc2cnn(S(=O)(=O)c3cccc(Cl)c3)c2c1)c1c(Cl)cccc1C(F)(F)F` [Compound V-39], the IC50 (Table 8, indazoles) is under 15 µM.

For `N#Cc1cccc(S(=O)(=O)N2C[C@H](CO)Oc3ccc(NC(=O)Cc4ccc(F)cc4)cc32)c1` [VI-64], the IC50 (benzoxazines, Table 9) was under 15 µM.

Regarding `O=C(Nc1ccc2cnn(S(=O)(=O)c3ccsc3)c2c1)c1c(F)cccc1Cl` [Compound V-99], the IC50 (Table 8, indazoles) was under 15 µM.

In the case of `CC(C)c1ccc(S(=O)(=O)n2ncc3ccc(NC(=O)c4c(F)cccc4Cl)cc32)cc1` [Compound V-120], the IC50 (Table 8, indazoles) was under 15 µM.

As for `CCn1cc(S(=O)(=O)n2ncc3ccc(NC(=O)c4c(F)cccc4Cl)cc32)cn1` [Compound V-113], the IC50 (Table 8, indazoles) is under 15 µM.

As for `N#Cc1cccc(S(=O)(=O)N2C[C@@H](CO)Oc3ccc(NC(=O)c4c(F)cccc4Cl)cc32)c1` [VI-59], the IC50 (benzoxazines, Table 9) was under 15 µM.

The compound `O=C(Nc1ccc2cnn(S(=O)(=O)c3ccc(F)c(C(F)(F)F)c3)c2c1)c1c(Cl)cccc1C(F)(F)F` [Compound V-33] had an IC50 (Table 8, indazoles) of under 15 µM.

The compound `Cc1cccc(Cl)c1C(=O)Nc1ccc2c(c1)N(S(=O)(=O)c1ccc(F)cc1)C[C@H](C)O2` [VI-21] came in with an IC50 (benzoxazines, Table 9) of under 15 µM.

For the compound `Cn1cc(S(=O)(=O)n2ncc3ccc(NC(=O)c4c(F)cccc4Cl)cc32)cn1` [Compound V-112], the IC50 (Table 8, indazoles) was under 15 µM.

As for `COCC1CN(S(=O)(=O)c2ccc(F)c(F)c2)c2cc(NC(=O)Cc3ccc(Cl)cc3)ccc2O1` (stereo not drawn) [VI-69], the IC50 (benzoxazines, Table 9) is over 15 µM.

On to `Cc1ccc(S(=O)(=O)n2ncc3ccc(NC(=O)c4c(F)cccc4Cl)cc32)cc1Cl` [Compound V-127], for which, for the setting “Table 8, indazoles”, the half-maximal inhibitory concentration (IC50) is under 15 µM.

`O=C(Nc1ccc2cnn(S(=O)(=O)c3ccc(Cl)s3)c2c1)c1c(F)cccc1Cl` [Compound V-96] displayed an IC50 (Table 8, indazoles) of under 15 µM.

`CCc1ccc(S(=O)(=O)n2ncc3ccc(NC(=O)c4c(F)cccc4Cl)cc32)cc1` [Compound V-116]: where the note is “Table 8, indazoles”, the IC50 was under 15 µM.

Where the note is “benzoxazines, Table 9”, `C[C@H]1CN(S(=O)(=O)c2ccc(F)cc2)c2cc(NC(=O)C(C)(C)c3ccc(Cl)cc3)ccc2O1` [VI-135] had an IC50 of under 15 µM.

Consider `CC(C(=O)Nc1ccc2c(c1)N(S(=O)(=O)c1ccc(F)cc1)C[C@H](C)O2)c1ccc(Cl)cc1` (stereo partly drawn) [VI-136], for which the IC50 (benzoxazines, Table 9) is under 15 µM.

With `Cc1nn(C(F)F)cc1S(=O)(=O)n1ncc2ccc(NC(=O)Cc3ccc(F)cc3)cc21` [Compound V-22], the IC50 (Table 8, indazoles) was under 15 µM.

`O=C(Nc1ccc2cnn(S(=O)(=O)Cc3ccc(C(F)(F)F)cc3)c2c1)c1c(Cl)cccc1Cl` [Compound V-71] registered a half-maximal inhibitory concentration (IC50) (Table 8, indazoles) of under 15 µM.

As for `CC(=O)c1cccc(S(=O)(=O)n2ncc3ccc(NC(=O)c4c(F)cccc4F)cc32)c1` [Compound V-59], where the note is “Table 8, indazoles”, the IC50 was under 15 µM.

Compound `O=C(Nc1ccc2cnn(S(=O)(=O)c3c(F)cccc3F)c2c1)c1c(F)cccc1Cl` [Compound V-128] had an IC50 (Table 8, indazoles) of under 15 µM.

As to `O=C(Nc1ccc2cnn(S(=O)(=O)c3ccccc3Cl)c2c1)c1c(F)cccc1Cl` [Compound V-136], the IC50 (Table 8, indazoles) was under 15 µM.

Regarding `O=C(Nc1ccc2cnn(S(=O)(=O)c3cccc(C(F)(F)F)c3)c2c1)c1c(Cl)cccc1C(F)(F)F` [Compound V-42], where the note is “Table 8, indazoles”, the IC50 is under 15 µM.

With `CCCc1ccc(S(=O)(=O)n2ncc3ccc(NC(=O)c4c(F)cccc4Cl)cc32)cc1` [Compound V-115], the IC50 (Table 8, indazoles) was under 15 µM.

In the case of `C[C@H]1CN(S(=O)(=O)c2ccc(F)cc2)c2cc(NC(=O)c3c(Cl)cccc3C(F)(F)F)ccc2O1` [VI-20], the IC50 (benzoxazines, Table 9) is under 15 µM.

For `CNC(=O)c1cccc(S(=O)(=O)n2ncc3ccc(NC(=O)c4c(F)cccc4Cl)cc32)c1` [Compound V-107], where the note is “Table 8, indazoles”, the IC50 was under 15 µM.

For the compound `O=C(Nc1ccc2cnn(S(=O)(=O)c3ccc(Cl)c(F)c3)c2c1)c1c(F)cccc1Cl` [Compound V-80], the IC50 (Table 8, indazoles) is under 15 µM.

In turn, `Cc1nn(C(F)F)cc1S(=O)(=O)n1ncc2ccc(NC(=O)Cc3ccc(Cl)cc3)cc21` [Compound V-27] displayed a half-inhibitory concentration (IC50) (Table 8, indazoles) of under 15 µM.

The compound `Cc1nn(C(F)F)cc1S(=O)(=O)n1ncc2ccc(NC(=O)c3c(Cl)cccc3C(F)(F)F)cc21` [Compound V-21] yielded an IC50 (Table 8, indazoles) of under 15 µM.

Where the note is “benzoxazines, Table 9”, `C[C@@H](O)[C@H]1CN(S(=O)(=O)c2ccc(F)cc2)c2cc(NC(=O)c3c(F)cccc3Cl)ccc2O1` [VI-17] returned an IC50 of under 15 µM.

Regarding `Cc1cc(F)ccc1S(=O)(=O)n1ncc2ccc(NC(=O)c3c(F)cccc3Cl)cc21` [Compound V-163], the IC50 (Table 8, indazoles) is under 15 µM.

Take `Cc1ccc(F)cc1S(=O)(=O)n1ncc2ccc(NC(=O)c3c(F)cccc3Cl)cc21` [Compound V-165]: the concentration for half-maximal inhibition (IC50) (Table 8, indazoles) was under 15 µM.

As to `C[C@H]1CN(S(=O)(=O)c2ccc(F)cc2)c2cc(NC(=O)c3c(Cl)cccc3Cl)ccc2O1` [VI-18], the IC50 (benzoxazines, Table 9) was under 15 µM.

Compound `COC(=O)c1ccccc1S(=O)(=O)n1ncc2ccc(NC(=O)c3c(F)cccc3Cl)cc21` [Compound V-142] registered an IC50 (Table 8, indazoles) of under 15 µM.

Turning to `O=C(Nc1ccc2c(c1)N(S(=O)(=O)c1ccc(F)cc1)CC(CC(F)(F)F)O2)c1c(F)cccc1Cl` (stereo not drawn) [VI-7], the IC50 (benzoxazines, Table 9) was under 15 µM.

Under “Table 8, indazoles”, `CC(=O)c1ccc(S(=O)(=O)n2ncc3ccc(NC(=O)c4c(F)cccc4Cl)cc32)cc1` [Compound V-141] displayed an IC50 of under 15 µM.

For the compound `N#Cc1cccc(S(=O)(=O)n2ncc3ccc(NC(=O)c4c(F)cccc4Cl)cc32)c1` [Compound V-121], the IC50 (Table 8, indazoles) is under 15 µM.

`Cc1cccc(S(=O)(=O)n2nc(-c3ccc(C(=O)O)cc3)c3ccc(NC(=O)c4c(F)cccc4Cl)cc32)c1` [Compound V-10] gave an IC50 (Table 8, indazoles) of under 15 µM.

For `O=C(Nc1ccc2c(c1)N(S(=O)(=O)c1ccc(F)cc1)CC(C(F)(F)F)O2)c1c(F)cccc1F` (stereo not drawn) [VI-111], the IC50 (benzoxazines, Table 9) is under 15 µM.

As to `CC(=O)c1cccc(S(=O)(=O)n2ncc3ccc(NC(=O)Cc4cc(F)cc(F)c4)cc32)c1` [Compound V-15], for the setting “Table 8, indazoles”, the IC50 was under 15 µM.

Compound `C[C@H]1CN(S(=O)(=O)c2cccc(C#N)c2)c2cc(NC(=O)c3c(Cl)cccc3Cl)ccc2O1` [VI-3] came in with a concentration for half-maximal inhibition (IC50) (benzoxazines, Table 9) of under 15 µM.

`CC(C)(C)c1cccc(S(=O)(=O)n2ncc3ccc(NC(=O)Cc4ccc(F)cc4)cc32)c1` [Compound V-23]: under “Table 8, indazoles”, the IC50 is under 15 µM.
